Data set [1] concerns Salmonella typhimurium TA 100, TA 1535, TA 98 and TA 1537. Briefly: Mutagenicity test (Ames) using microorganisms. The format is cell-based. The note with it: for mutation-inducing ability: Salmonella typhimurium TA 100, TA 1535, TA 98, TA 1537, compared with solvent control; for growth inhibition: high concentrations. From the text: (§1) As a mutagenicity test (Ames) using microorganisms, mutation-inducing ability of zinc complexes with maltol, picolinic acid, picolinamide, 6-methyl-picolinic acid, L-threonine and L-valine was examined using Salmonella typhimurium TA 100, TA 1535, TA 98 and TA 1537 and Escherichia coli WP 2 uvr A.

A short description of a further data set: Acute toxicity test. The format is in vivo. The note with it: rat, in vivo. Here is the method:
(§2) Outside the application of GLP, acute toxicity test was carried out for zinc complexes with maltol, picolinic acid, picolinamide, 6-methyl-picolinic acid, L-threonine and L-valine.

Another data set deals with female and male rats. Nature of the data set: Acute toxicity test. The note with it: female and male rats, 2, 8 and 15 days after administration of 2,000 mg/kg. The format is in vivo. The method, then:
as §2

The subject of data set [2] is Escherichia coli WP 2 uvr A. Briefly: Mutagenicity test (Ames) using microorganisms. The format is cell-based. The note with it: compared with solvent control.
Source text: as §1

The mark [3] stands for this setting: ligand per se, strain not stated.

The values that follow come from US20060153897A1, “Zinc-containing foods” (priority 2001, published 2006).

“bis(maltol)/zinc complex [zinc complex with maltol]”: the mutation-inducing ability entry in data set [1] is listed as “very weakly positive”. Also, the growth inhibition entry in data set [1] (TA 1535 strain) is “growth inhibition at high concentrations”.
As usually defined, the LD50 is the dose expected to kill half of the subjects tested. High values mean a less toxic substance, low ones a more toxic substance. `Cc1occc(=O)c1O` [maltol, reference compound]: the LD50 at 15 days came to 1590 mg/kg in the data set “Acute toxicity test” (female) and 1680 mg/kg in the data set “Acute toxicity test” (male). In addition, the growth inhibition entry in data set [1] (setting [3]) is recorded as “growth inhibition at high concentrations”.
On to `CC(C)[C@H](N)C(=O)[O-].CC(C)[C@H](N)C(=O)[O-].[Zn+2]` [zinc complex with L-valine], for which, in the data set with female and male rats, the “change in normal state and autopsy compared with solvent control group” value (from here on “change in normal state and autopsy”) was “no special change”. The mutation-inducing ability result in data set [2] and in data set [1] was “no mutation-inducing ability” in each case.
As for `O=C(O)c1ccccn1` [picolinic acid, reference compound], the growth inhibition result in data set [1] (setting [3]) is “growth inhibition at high concentrations”.
For `Cc1cccc(C(=O)[O-])n1.Cc1cccc(C(=O)[O-])n1.[Zn+2]` [bis(6-methylpicolinic acid)/zinc complex], in the data set on female and male rats, the “change in normal state and autopsy” value was “no special change”. In addition, the mutation-inducing ability entry in data set [2] and in data set [1] was “no mutation-inducing ability” in each case.
For `O=C([O-])c1ccccn1.O=C([O-])c1ccccn1.[Zn+2]` [zinc complex with picolinic acid], the “change in normal state and autopsy” value in the data set with female and male rats is “no special change”. Moreover, the mutation-inducing ability result in data set [1] is “very weakly positive”. In data set [1] (TA 98, TA 1537 strains), the growth inhibition entry is “growth inhibition at high concentrations”.
